From ChEMBL document CHEMBL1153623, “Synthesis and bioactivity of substituted indan-1-ylideneaminoguanidine derivatives” (Eur J Med Chem, 2009)

Tests used:
[1] = target: Sodium/hydrogen exchanger 1 (Rattus norvegicus, UniProt P26431); test: Inhibition of NHE1 in Sprague-Dawley rat platelet-rich plasma by optical swelling assay
[2] = tested on: Rattus norvegicus; test: Cardioprotective activity against ischemic Sprague-Dawley rat heart assessed as serum creatine kinase level at 1 mg/kg, iv treated 5 mins before left anterior descending coronary artery occlusion measured after 2 hrs of reperfusion by Evans staining; format: functional
[3] = tested on: Rattus norvegicus; test: Cardioprotective activity against ischemic Sprague-Dawley rat heart assessed as reduction in infarct size at 1 mg/kg, iv treated 5 mins before left anterior descending coronary artery occlusion measured after 2 hrs of reperfusion by Evans staining; format: functional; design: scale not given: the % may be the effect or the level left
[4] = tested on: Rattus norvegicus; test: Cardioprotective activity against ischemic Sprague-Dawley rat heart assessed as serum creatine kinase level at 0.25 mg/kg, iv treated 5 mins before left anterior descending coronary artery occlusion measured after 2 hrs of reperfusion by Evans staining; format: functional
[5] = tested on: Rattus norvegicus; test: Cardioprotective activity against ischemic Sprague-Dawley rat heart assessed as reduction in infarct size at 0.5 mg/kg, iv treated 5 mins before left anterior descending coronary artery occlusion measured after 2 hrs of reperfusion by Evans staining; format: functional; design: scale not given: the % may be the effect or the level left
[6] = target: Sodium/hydrogen exchanger 1 (Rattus norvegicus) (UniProt P26431); test: Ratio of cariporide IC50 to compound IC50 for NHE1 in Sprague-Dawley rat platelet-rich plasma by optical swelling assay
Chain of Sodium/hydrogen exchanger 1 (Rattus norvegicus) (P26431 whole entry, the tested form may be a part): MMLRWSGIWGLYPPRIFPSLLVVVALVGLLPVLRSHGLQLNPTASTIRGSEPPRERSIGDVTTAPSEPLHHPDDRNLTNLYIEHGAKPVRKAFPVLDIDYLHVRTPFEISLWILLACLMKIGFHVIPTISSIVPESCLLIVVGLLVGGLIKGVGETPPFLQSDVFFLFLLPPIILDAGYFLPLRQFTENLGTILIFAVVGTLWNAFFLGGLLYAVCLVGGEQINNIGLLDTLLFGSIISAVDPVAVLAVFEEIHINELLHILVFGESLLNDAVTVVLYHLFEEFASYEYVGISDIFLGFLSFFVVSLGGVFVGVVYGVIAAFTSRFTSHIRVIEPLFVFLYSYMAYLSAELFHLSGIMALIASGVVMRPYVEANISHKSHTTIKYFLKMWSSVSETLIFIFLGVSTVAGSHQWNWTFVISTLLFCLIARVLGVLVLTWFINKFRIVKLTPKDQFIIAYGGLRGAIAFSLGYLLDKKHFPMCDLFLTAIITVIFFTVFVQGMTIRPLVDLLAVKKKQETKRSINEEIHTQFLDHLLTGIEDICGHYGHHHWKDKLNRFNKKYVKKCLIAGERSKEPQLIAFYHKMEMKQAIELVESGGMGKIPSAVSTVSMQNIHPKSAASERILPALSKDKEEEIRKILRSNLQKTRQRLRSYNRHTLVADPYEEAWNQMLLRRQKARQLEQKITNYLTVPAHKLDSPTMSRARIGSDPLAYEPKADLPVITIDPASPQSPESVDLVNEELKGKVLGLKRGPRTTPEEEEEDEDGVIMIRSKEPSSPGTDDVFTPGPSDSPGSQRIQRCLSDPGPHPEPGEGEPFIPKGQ

[7] = tested on: Rattus norvegicus; test: Cardioprotective activity against ischemic Sprague-Dawley rat heart assessed as reduction in infarct size at 0.25 mg/kg, iv treated 5 mins before left anterior descending coronary artery occlusion measured after 2 hrs of reperfusion by Evans staining; format: functional; design: scale not given: the % may be the effect or the level left
[8] = tested on: Rattus norvegicus; test: Cardioprotective activity against ischemic Sprague-Dawley rat heart assessed as serum creatine kinase level at 0.5 mg/kg, iv treated 5 mins before left anterior descending coronary artery occlusion measured after 2 hrs of reperfusion by Evans staining; format: functional

Chain of Sodium/hydrogen exchanger 1 (P26431 whole entry, the tested form may be a part): as above

Compound: COc1cc2c(c(OC)c1OC)CC(Sc1nc3ccccc3[nH]1)/C2=N/N=C(N)N (configuration not stated)
- IC50 [1]: 10.8 nM

Compound: NC(N)=N/N=C1\c2ccc([N+](=O)[O-])cc2CC1Sc1nc2ccccc2[nH]1 (configuration not stated)
- IC50 [1]: 1.17 nM

Compound: NC(N)=N/N=C1\c2cc(F)ccc2CC1Sc1nc2ccccc2s1 (configuration not stated)
- IC50 [1]: 287 nM

Compound: CC(C)c1ccc(C(=O)N=C(N)N)cc1S(C)(=O)=O [CARIPORIDE]
- Activity [2]: 3.53 U/ml
- Activity [3]: 45.74%

Compound: COc1ccc2[nH]c(SC3Cc4ccc(F)cc4/C3=N\N=C(N)N)nc2c1 (configuration not stated)
- IC50 [1]: 25.5 nM

Compound: COc1cc2c(cc1OC)/C(=N\N=C(N)N)C(Sc1nc3ccccc3s1)C2 (configuration not stated)
- IC50 [1]: 2.44 nM

Compound: NC(N)=N/N=C1\c2ccc(Cl)cc2CC1Sc1nc2ccccc2[nH]1 (configuration not stated)
- IC50 [1]: 21.4 nM

Compound: NC(N)=N/N=C1\c2cc(F)ccc2CC1Sc1nc2cc([N+](=O)[O-])ccc2[nH]1 (configuration not stated)
- IC50 [1]: 38 nM

Compound: NC(N)=N/N=C1\c2ccc(Cl)cc2CC1Sc1nc2cc([N+](=O)[O-])ccc2[nH]1 (configuration not stated)
- IC50 [1]: 12.2 nM

Compound: NC(N)=N/N=C1\c2cc(Cl)ccc2CC1Sc1nc2cc([N+](=O)[O-])ccc2[nH]1 (configuration not stated)
- IC50 [1]: 38.9 nM

Compound: Cl.Cl.NC(N)=N/N=C1\c2ccccc2CC1Sc1nc2ccccc2[nH]1 (configuration not stated)
- Activity [2]: 3.02 U/ml
- IC50 [1]: 1.73 nM
- Activity [3]: 42.89%

Compound: COc1ccc2[nH]c(SC3Cc4ccccc4/C3=N\N=C(N)N)nc2c1 (configuration not stated)
- IC50 [1]: 16.8 nM

Compound: NC(N)=N/N=C1\c2cccc(Cl)c2CC1Sc1nc2ccccc2s1 (configuration not stated)
- IC50 [1]: 20.3 nM

Compound: COc1cc2c(cc1OC)/C(=N\N=C(N)N)C(Sc1nc3ccccc3[nH]1)C2 (configuration not stated)
- IC50 [1]: 11.2 nM

Compound: COc1cc2c(c(OC)c1OC)CC(Sc1nc3ccccc3s1)/C2=N/N=C(N)N (configuration not stated)
- IC50 [1]: 1.98 nM

Compound: COc1ccc2c(c1)/C(=N\N=C(N)N)C(Sc1nc3ccccc3s1)C2.Cl (configuration not stated)
- Activity [2]: 3.38 U/ml
- IC50 [1]: 1.9 nM
- Activity [3]: 43.24%

Compound: NC(N)=N/N=C1\c2cc(Cl)ccc2CC1Sc1nc2ccccc2[nH]1 (configuration not stated)
- IC50 [1]: 326 nM

Compound: NC(N)=N/N=C1\c2cc(Cl)ccc2CC1Sc1nc2ccccc2s1 (configuration not stated)
- IC50 [1]: 34.6 nM

Compound: Br.COc1ccc2[nH]c(SC3Cc4cc(Cl)ccc4/C3=N\N=C(N)N)nc2c1.Cl (configuration not stated)
- Activity [2]: 2.82 U/ml
- Activity [4]: 3.72 U/ml
- Activity [5]: 40.87%
- Ratio IC50 [6]: 69
- Activity [7]: 42.27%
- Activity [8]: 3.34 U/ml
- IC50 [1]: 0.94 nM
- Activity [3]: 36.16%

Compound: Cl.NC(N)=N/N=C1\c2ccccc2CC1Sc1nc2cc([N+](=O)[O-])ccc2[nH]1 (configuration not stated)
- Activity [2]: 4.12 U/ml
- IC50 [1]: 1.74 nM
- Activity [3]: 49.18%

Compound: NC(N)=N/N=C1\c2ccc(Cl)cc2CC1Sc1nc2ccccc2s1 (configuration not stated)
- IC50 [1]: 2.34 nM

Compound: NC(N)=N/N=C1\c2cc(Cl)cc(Cl)c2CC1Sc1nc2ccccc2[nH]1 (configuration not stated)
- IC50 [1]: 654 nM

Compound: COc1cc2c(c(OC)c1OC)CC(Sc1nc3cc([N+](=O)[O-])ccc3[nH]1)/C2=N/N=C(N)N (configuration not stated)
- IC50 [1]: 31.5 nM
